# In ChEMBL document CHEMBL1201862, “PubChem BioAssay data set” (2004):
#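 Where inhibition never reached the appropriate level, the endpoint shown equals the highest concentration tested. Otherwise, values were interpolated linearly from a five-concentration, 48-hour dose response in 96-well plates. GI50 marks 50% less growth.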 Activity calls are given as the source filed them. Cut-off read from the data, not from the text of the source: active = GI50 up to about 1.1 µM and inactive = higher.
# Tests used:
# Assay in all cases: DTP human tumour cell line panel, 48 h
# COLO 205 = system: COLO 205
# NCI-H23 = system: NCI-H23
# UACC-62 = system: UACC-62
# SK-MEL-28 = system: SK-MEL-28
# SF-539 = system: SF-539
# M14 = system: M14
# EKVX = system: EKVX
# UACC-257 = system: UACC-257
# Malme-3M = system: Malme-3M
# SNB-19 = system: SNB-19
# SK-OV-3 = system: SK-OV-3
# U-251 = system: U-251
# NCI-H522 = system: NCI-H522
# A498 = system: A498
# OVCAR-5 = system: OVCAR-5
# SK-MEL-5 = system: SK-MEL-5
# HCT-15 = system: HCT-15
# MCF7 = system: MCF7
# PC-3 = system: PC-3
Structure (SMILES),GI50 (COLO 205),GI50 (NCI-H23),GI50 (UACC-62),GI50 (SK-MEL-28),GI50 (SF-539),GI50 (M14),GI50 (EKVX),GI50 (UACC-257),GI50 (Malme-3M),GI50 (SNB-19),GI50 (SK-OV-3),GI50 (U-251),GI50 (NCI-H522),GI50 (A498),GI50 (OVCAR-5),GI50 (SK-MEL-5),GI50 (HCT-15) [µM],GI50 (MCF7),GI50 (PC-3)
Nc1nc(O)c([N+](=O)[O-])c(NCCOCP(=O)(O)O)n1,> 100 µM (inactive),> 100 µM (inactive),> 100 µM (inactive),> 100 µM (inactive),> 100 µM (inactive),> 100 µM (inactive),> 100 µM (inactive),> 100 µM (inactive),> 100 µM (inactive),> 100 µM (inactive),> 100 µM (inactive),> 100 µM (inactive),> 100 µM (inactive),–,–,–,–,–,–
O=c1[nH]c(=O)n(C2CC(O)C(CO)O2)cc1COCC(F)(F)F (stereo not drawn),> 100 µM (inactive),> 100 µM (inactive),> 100 µM (inactive),–,> 100 µM (inactive),> 100 µM (inactive),> 100 µM (inactive),> 100 µM (inactive),> 100 µM (inactive),> 100 µM (inactive),> 100 µM (inactive),> 100 µM (inactive),> 100 µM (inactive),> 100 µM (inactive),> 100 µM (inactive),> 100 µM (inactive),–,–,–
c1ccc(SCCCC(Sc2ccccc2)Sc2ccccc2)cc1,> 100 µM (inactive),> 100 µM (inactive),> 100 µM (inactive),> 100 µM (inactive),> 100 µM (inactive),> 100 µM (inactive),> 100 µM (inactive),> 100 µM (inactive),–,> 100 µM (inactive),> 100 µM (inactive),> 100 µM (inactive),–,> 100 µM (inactive),–,> 100 µM (inactive),> 100,–,–
S=P(N1CCCC1)(N1CC1)N1CC1,> 100 µM (inactive),> 100 µM (inactive),> 100 µM (inactive),> 100 µM (inactive),> 100 µM (inactive),> 100 µM (inactive),> 100 µM (inactive),> 100 µM (inactive),> 100 µM (inactive),84.1 µM (inactive),> 100 µM (inactive),> 100 µM (inactive),83.9 µM (inactive),> 100 µM (inactive),> 100 µM (inactive),> 100 µM (inactive),> 100,–,–
C/C(CN1C(=O)c2ccccc2C1=O)=N\NS(=O)(=O)c1ccc(Br)cc1,> 100 µM (inactive),> 100 µM (inactive),> 100 µM (inactive),> 100 µM (inactive),> 100 µM (inactive),> 100 µM (inactive),> 100 µM (inactive),> 100 µM (inactive),> 100 µM (inactive),> 100 µM (inactive),> 100 µM (inactive),> 100 µM (inactive),> 100 µM (inactive),> 100 µM (inactive),> 100 µM (inactive),> 100 µM (inactive),> 100,–,–
CC(C)(C)/N=C1/CC(C)(C)c2ccccc2/C(=N\c2ccccc2)S1,23.3 µM (inactive),27.7 µM (inactive),27 µM (inactive),37.4 µM (inactive),60.4 µM (inactive),39.5 µM (inactive),55.5 µM (inactive),30 µM (inactive),27.9 µM (inactive),36.2 µM (inactive),57 µM (inactive),30.6 µM (inactive),15.2 µM (inactive),43 µM (inactive),37.9 µM (inactive),24.6 µM (inactive),37.2,–,–
O=C1C[C@H]2CC3(CC[C@H]2CN1)OCCO3,> 100 µM (inactive),> 100 µM (inactive),> 100 µM (inactive),> 100 µM (inactive),> 100 µM (inactive),> 100 µM (inactive),> 100 µM (inactive),> 100 µM (inactive),> 100 µM (inactive),> 100 µM (inactive),> 100 µM (inactive),> 100 µM (inactive),> 100 µM (inactive),> 100 µM (inactive),–,> 100 µM (inactive),> 100,–,–
CCP(C)(=O)CC,> 100 µM (inactive),> 100 µM (inactive),> 100 µM (inactive),> 100 µM (inactive),> 100 µM (inactive),> 100 µM (inactive),> 100 µM (inactive),> 100 µM (inactive),> 100 µM (inactive),> 100 µM (inactive),> 100 µM (inactive),> 100 µM (inactive),–,–,> 100 µM (inactive),> 100 µM (inactive),> 100,–,–
NC1CC=C(COC(=O)C(O)(c2ccccc2)C2CC2)CC1 (stereo not drawn),> 100 µM (inactive),> 100 µM (inactive),> 100 µM (inactive),> 100 µM (inactive),> 100 µM (inactive),> 100 µM (inactive),> 100 µM (inactive),> 100 µM (inactive),> 100 µM (inactive),> 100 µM (inactive),> 100 µM (inactive),> 100 µM (inactive),> 100 µM (inactive),–,> 100 µM (inactive),> 100 µM (inactive),> 100,> 100 µM (inactive),> 100 µM (inactive)
CC(C)C(Sc1nc(-c2ccccc2)c(-c2ccccc2)[nH]1)C(=O)N/N=C/c1ccc(Cl)cc1 (stereo not drawn),17.7 µM (inactive),22.3 µM (inactive),22.8 µM (inactive),21.8 µM (inactive),21.1 µM (inactive),17.7 µM (inactive),22.1 µM (inactive),21 µM (inactive),23.7 µM (inactive),36.9 µM (inactive),27.2 µM (inactive),21.7 µM (inactive),20.7 µM (inactive),22 µM (inactive),22.6 µM (inactive),16.7 µM (inactive),17.5,–,–
C#CCOCn1cnc2c(N)ncnc21,> 100 µM (inactive),> 100 µM (inactive),> 100 µM (inactive),> 100 µM (inactive),> 100 µM (inactive),> 100 µM (inactive),> 100 µM (inactive),> 100 µM (inactive),> 100 µM (inactive),> 100 µM (inactive),> 100 µM (inactive),> 100 µM (inactive),> 100 µM (inactive),> 100 µM (inactive),> 100 µM (inactive),> 100 µM (inactive),–,–,–
O=C(c1ccc([N+](=O)[O-])cc1[N+](=O)[O-])N(/N=C/C=C/c1ccccc1)c1nnc(-c2ccccc2)c(-c2ccccc2)n1,41.6 µM (inactive),27 µM (inactive),20.6 µM (inactive),27.3 µM (inactive),15.2 µM (inactive),30.6 µM (inactive),36.4 µM (inactive),31.5 µM (inactive),43.8 µM (inactive),94.4 µM (inactive),74.8 µM (inactive),40.3 µM (inactive),22 µM (inactive),30.5 µM (inactive),> 100 µM (inactive),30.6 µM (inactive),29,–,–
O=C(/C=N/O)Nc1cccc(Cl)c1I,89.9 µM (inactive),59.2 µM (inactive),43.1 µM (inactive),> 100 µM (inactive),–,47.2 µM (inactive),8.83 µM (inactive),56.9 µM (inactive),40.6 µM (inactive),55.7 µM (inactive),28.5 µM (inactive),39.2 µM (inactive),26.1 µM (inactive),27.7 µM (inactive),> 100 µM (inactive),40.8 µM (inactive),79.1,–,–
N#CC(NNC(=O)c1ccccc1O)c1ccc(O)cc1 (stereo not drawn),29.2 µM (inactive),8.05 µM (inactive),1.95 µM (inactive),> 100 µM (inactive),3.78 µM (inactive),6.93 µM (inactive),–,15.6 µM (inactive),29.6 µM (inactive),–,6.44 µM (inactive),3.8 µM (inactive),12.8 µM (inactive),–,17.6 µM (inactive),19.4 µM (inactive),8.63,–,–
O=C(CC(=O)n1nc(-c2ccccc2)c(/N=N/c2ccccc2Cl)c1-c1ccccc1)Nc1ccc(Cl)cc1,> 44.5 µM (inactive),> 100 µM (inactive),> 100 µM (inactive),> 100 µM (inactive),> 100 µM (inactive),> 100 µM (inactive),> 100 µM (inactive),> 83.2 µM (inactive),> 100 µM (inactive),> 100 µM (inactive),> 100 µM (inactive),> 38.6 µM (inactive),> 100 µM (inactive),> 100 µM (inactive),> 100 µM (inactive),> 100 µM (inactive),> 43,–,–
Cc1ccc(C2=C(c3ccccc3)C(Br)(c3ccccc3)C(c3ccccc3)=C2c2ccc(C)cc2)cc1,> 100 µM (inactive),> 100 µM (inactive),> 100 µM (inactive),> 100 µM (inactive),> 100 µM (inactive),> 100 µM (inactive),> 100 µM (inactive),> 100 µM (inactive),> 100 µM (inactive),> 100 µM (inactive),> 100 µM (inactive),> 100 µM (inactive),> 100 µM (inactive),> 100 µM (inactive),> 100 µM (inactive),> 100 µM (inactive),> 100,–,–
Oc1ccc(-c2nc3ccc(F)cc3s2)cc1,16.2 µM (inactive),19.7 µM (inactive),17.6 µM (inactive),–,17.8 µM (inactive),20.4 µM (inactive),10.8 µM (inactive),17.1 µM (inactive),18.5 µM (inactive),19.3 µM (inactive),18.2 µM (inactive),19.2 µM (inactive),13.2 µM (inactive),–,21.7 µM (inactive),18 µM (inactive),18,17.5 µM (inactive),21.4 µM (inactive)
